Structures are written as SMILES.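 How tested: cells in 96-well plates exposed to compound for 48 hours at five concentrations. TGI denotes the concentration required for complete inhibition of growth.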

The source of these data is PubChem BioAssay (NCI).

Test in all cases: NCI-60 cell line screen, 48 h
The test system of test [1] is UO-31 renal.
Test [2] concerns SK-MEL-5 melanoma.
Test [3] deals with EKVX NSCLC.
Test [4] deals with A498 renal.
Test [5] relates to OVCAR-8 ovarian.
For test [6], the system named is NCI-H23 lung.
Test [7] deals with SK-MEL-2 melanoma.
Test [8] deals with ACHN renal.
The subject of test [9] is PC-3 prostate.

`Nn1c(Cc2ccc(Cl)cc2)n[nH]c1=O`: the TGI in test [1], in test [2], in test [3], in [4], in test [5] and in [6] was greater than 100 µM throughout. The TGI in [7] and in [8] was greater than 100 µM in each case.

As to `CC(=O)NC1(C)CCC(C(C)(C)NC(C)=O)CC1` (configuration not stated), the TGI in test [1], in test [2], in test [9], in test [3], in test [4] and in [5] was greater than 100 µM in each case. In addition, the TGI in [6] and in [8] was greater than 100 µM throughout.

Turning to `Nc1ccc2c(c1)C1Oc3ccccc3CC1CO2` (configuration not stated), the TGI in test [1], in test [2], in test [9], in test [3], in test [4] and in test [5] was greater than 100 µM in each case. The TGI in test [6] and in test [7] was greater than 100 µM each time.

As to `CC1CN=C(Nc2cccc(C(F)(F)F)c2)S1` (configuration not stated), the TGI was 78.6 µM in test [1]; greater than 100 µM in test [3]; greater than 100 µM in test [4]; greater than 100 µM in test [6]; greater than 100 µM in test [7]; greater than 100 µM in test [8].

Regarding `Cc1cc(S(=O)(=O)Nc2nc3ccsc3c(=O)n2N)c(S)cc1Cl`, the TGI in test [2], in test [9], in [3], in test [5], in test [6] and in [7] was greater than 100 µM in each case. In [8], this compound showed a TGI greater than 100 µM.

In the case of `CC(=O)Nc1ccc(S(=O)(=O)Nc2nnc(S(N)(=O)=O)s2)cc1`, the TGI in [1], in test [3], in test [4], in test [6] and in [8] was greater than 100 µM throughout.

With `CC1(C)O[C@H](C(=O)O)[C@@H](C(=O)O)O1`, the TGI in [2], in [9], in test [3], in [4], in test [5] and in [7] was greater than 100 µM each time. The TGI in [8] is greater than 100 µM.

Consider `c1ccc2c(c1)c1c(n2CCOCCN2CCCCC2)CCCC1`, for which the TGI in test [1] was found to be 24.6 µM; in test [2], 21.1 µM; in [9] it was 22.2 µM; in test [3], 32.8 µM; in test [5], 28.4 µM; in test [6], 37.4 µM. Moreover, the values for the TGI in test [7] and in [8] were 21.1 µM and 27.7 µM, respectively.

For `CCOC(=O)C(=[N+]=[N-])C(=O)C[N+]12CCN(CC1)CC2`, the TGI in test [1], in test [2], in [9], in test [4], in [5] and in test [6] was greater than 100 µM each time. The TGI in [7] and in test [8] was greater than 100 µM throughout.

Regarding `CCOC(=O)c1c(SC(=O)c2cc(OC)c(OC)c(OC)c2)n(-c2ccccc2)c(=S)n(-c2ccccc2)c1=O`, the TGI in test [9], in test [3], in test [4], in test [5], in test [6] and in [8] was greater than 100 µM throughout.

With `O=C1C=Cc2c(Cl)sc(Cl)c21`, the TGI in [2] amounted to 8.09 µM; in test [9], 4.83 µM; in test [3], 16.8 µM; in test [4] it was 16.1 µM; in test [6] it was 5.68 µM; in test [7], 5.32 µM. The compound also yielded a TGI in test [8] of 3.16 µM.

Take `Cc1oc2nc1C(=O)NCc1nc(cs1)C(=O)N[C@H](C(C)C)c1nc(cs1)C(=O)N[C@H]2C`: the TGI in test [1], in test [2], in test [9], in test [3], in test [4] and in test [5] was greater than 100 µM in each case. Moreover, the TGI in [6] and in test [8] was greater than 100 µM in each case.

Take `O=[N+]([O-])C(/C(Cl)=C(/Cl)N1CCOCC1)=C1\NCCO1`: the TGI in test [1], in test [9], in test [3], in test [4], in test [5] and in test [6] was greater than 100 µM each time. Further, the TGI in test [7] and in [8] was greater than 100 µM each time.

In the case of `CC(=O)Nc1ccc2c(C(=O)O)c(C)c(=O)[nH]c2n1`, the TGI in test [1], in test [2], in test [9], in test [3], in test [5] and in test [6] was greater than 100 µM in each case. Besides, the TGI in test [7] and in test [8] was greater than 100 µM each time.

Regarding `N/C(=N\N=C\c1ccc2c(c1)OCO2)NO`, the TGI in test [2] is 35.2 µM; in [9] it was greater than 100 µM; in [3] it was greater than 100 µM; in [4], 56.5 µM; in test [5], 40 µM; in test [6], 98.8 µM. Also, the results for the TGI in [7] and in test [8] were 61.1 µM and 47.9 µM, respectively.

Regarding `CCSc1ncnc2c(C3OC(CO)C(O)C3O)nsc12` (configuration not stated), the TGI in [2], in test [9], in test [3], in test [4], in [5] and in test [7] was greater than 100 µM throughout.

Regarding `Cc1cc2c(cc1-c1cc3c(cc1C)C(C(C)C)=C(O)C(=O)/C3=C\Nc1nc(-c3ccccc3)cs1)/C(=C/Nc1nc(-c3ccccc3)cs1)C(=O)C(O)=C2C(C)C`, the TGI in test [2] was 31.4 µM; in test [9] it was 37.3 µM; in test [3] it was 52.1 µM; in [4], 98.6 µM; in test [5], 77 µM; in [6], 28.8 µM. Also, the results for the TGI in [7] and in test [8] were 50.9 µM and 31.2 µM, respectively.

With `COc1cc2c(cc1OC)C1CN3C(=O)CCC3C(O)C1c1cc(OC)c(OC)cc1-2` (configuration not stated), the TGI in test [1], in test [2], in test [3], in test [4], in [5] and in test [6] was greater than 100 µM throughout. Besides, the TGI in test [7] and in test [8] was greater than 100 µM throughout.
